These results are taken from ChEMBL document CHEMBL1201862, “PubChem BioAssay data set” (2004).

Test systems include LXFL 529; DMS-273; DLD-1; KM-20L2; RXF 631; M19-MEL; DMS-114; HOP-18; XF498.
Holding throughout (experiment): NCI tumour cell line growth inhibition, 48 h

Molecules are shown by their SMILES.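 Assay format: 96-well plates, 48-hour exposure. GI50 is the concentration that inhibits growth by half.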 The source made the active and inactive calls. No stated cut-off is given here; in the data, active = GI50 up to about 1.1 µM and inactive = higher.

For `COC1=CC(=O)c2c(ccc3ncnc(N)c23)C1=O`, the GI50 is 1.75 µM (inactive) in the assay with LXFL 529; 3.32 µM (inactive) in the assay with DMS-273; 2.08 µM (inactive) with DLD-1; 18.8 µM (inactive) with KM-20L2; 4.82 µM (inactive) in the assay on RXF 631; 1.69 µM (inactive) in the assay on M19-MEL. Also, in the assay on DMS-114, the GI50 was 1.77 µM (inactive).

As to `COC(=O)CCC(=O)C(CC(=O)OC)C(=O)CCC(=O)NCCc1ccccc1` (stereo not given), the GI50 in the assay on LXFL 529, in the assay with DMS-273, in the assay with KM-20L2, with RXF 631 and in the assay on HOP-18 was > 100 µM (inactive) each time.

`N=c1n(CC(=O)NC23CC4CC(CC(C4)C2)C3)c2ccccc2n1CC(=O)NC12CC3CC(CC(C3)C1)C2`: the GI50 in the assay on LXFL 529 is 2.04 µM (inactive); in the assay on DMS-273, 1.83 µM (inactive); in the assay with DLD-1 it was 1.9 µM (inactive); with KM-20L2, 1.81 µM (inactive); in the assay with XF498, 1.52 µM (inactive); with M19-MEL it was 1.72 µM (inactive). The GI50 in the assay with HOP-18 was 2.03 µM (inactive); in the assay on DMS-114, 1.93 µM (inactive).

With `N=C(CC(=O)Nc1ccc(Cl)cc1)Nc1ccccc1`, the GI50 in the assay with LXFL 529, in the assay with DMS-273, in the assay on DLD-1, with KM-20L2, in the assay with XF498 and in the assay with M19-MEL was > 100 µM (inactive) in each case.

For the compound `CSC(C1c2ccccc2N(C)C2=NC(=O)N(C)C(=O)C21Cl)S(=O)(=O)c1ccc(C)cc1` (stereo not given), the GI50 with LXFL 529 was 22.2 µM (inactive); in the assay on DMS-273, 27.3 µM (inactive); with DLD-1 it was 40.9 µM (inactive); in the assay on KM-20L2, > 100 µM (inactive); in the assay with RXF 631 it was 39.6 µM (inactive); in the assay with XF498, > 100 µM (inactive). Also, the results for the GI50 with M19-MEL, in the assay on HOP-18 and with DMS-114 were 33.4 µM (inactive), 83.2 µM (inactive) and 49.1 µM (inactive), respectively.

Turning to `O=c1c2cc(Br)cc(Br)c2nc(CCCl)n1-c1ccc(O)c([N+](=O)[O-])c1`, the GI50 is 16.1 µM (inactive) in the assay on LXFL 529; 21.5 µM (inactive) in the assay on DMS-273; 18.9 µM (inactive) with DLD-1; 15.9 µM (inactive) in the assay with M19-MEL; 16.7 µM (inactive) in the assay on HOP-18; 19.1 µM (inactive) with DMS-114.

As for `C/C(=N/NS(=O)(=O)c1ccc(C)cc1)c1cccc[n+]1[O-]`, the GI50 in the assay with LXFL 529, in the assay on DMS-273, in the assay on DLD-1, with KM-20L2, in the assay with RXF 631 and in the assay on XF498 was > 100 µM (inactive) in each case. The GI50 in the assay with M19-MEL, in the assay on HOP-18 and with DMS-114 was > 100 µM (inactive) in each case.

Turning to `O=C1/C(=C/c2ccc3c(c2)OCCO3)CCC/C1=C\c1ccc2c(c1)OCCO2`, the GI50 in the assay with LXFL 529 is 37.5 µM (inactive); in the assay with DMS-273, 8.99 µM (inactive); with DLD-1, 15.8 µM (inactive); with KM-20L2, 10.8 µM (inactive); in the assay on M19-MEL, 18.2 µM (inactive); in the assay with HOP-18 it was 23.9 µM (inactive).

On to `C/C(CC(=O)CCCC(=O)Nc1ccc(Cl)cc1Cl)=N/NC(=O)CC#N`, for which the GI50 with LXFL 529, in the assay on DMS-273, with DLD-1, with KM-20L2, with RXF 631 and with XF498 was > 100 µM (inactive) throughout. In addition, the GI50 in the assay with M19-MEL, in the assay on HOP-18 and in the assay on DMS-114 was > 100 µM (inactive) throughout.

Consider `O=C(O)c1ccc2c(c1)C(=O)N(c1ccc(S(=O)(=O)c3ccc(N4C(=O)c5ccc(C(=O)O)cc5C4=O)cc3)cc1)C2=O`, for which the GI50 with LXFL 529, in the assay on DMS-273, in the assay with KM-20L2, in the assay with XF498, in the assay with M19-MEL and in the assay on DMS-114 was > 100 µM (inactive) throughout.

Consider `OC12c3ccccc3C1(N1CCOCC1)CCCCC21OCCCO1` (stereo not given), for which the GI50 with LXFL 529, in the assay on DMS-273, with DLD-1, in the assay with KM-20L2, in the assay on HOP-18 and with DMS-114 was > 100 µM (inactive) in each case.

Consider `CCCCCCCCCCCc1nnc(N)o1`, for which the GI50 in the assay on LXFL 529 is > 100 µM (inactive); with DMS-273, > 100 µM (inactive); in the assay with DLD-1, > 100 µM (inactive); in the assay on KM-20L2, > 100 µM (inactive); with RXF 631, 82 µM (inactive); with XF498, > 100 µM (inactive). For the same compound, the GI50 with M19-MEL was > 100 µM (inactive).

For the compound `COc1cc(C(=O)C/C(CCC(=O)Nc2ccccc2[N+](=O)[O-])=N\NC(=O)C(N)=O)ccc1O`, the GI50 with LXFL 529, with DMS-273, with DLD-1, in the assay on KM-20L2, in the assay on RXF 631 and in the assay on M19-MEL was > 100 µM (inactive) each time. Besides, the GI50 in the assay with HOP-18 and in the assay with DMS-114 was > 100 µM (inactive) each time.

Regarding `CC1CC#CCOC(=O)CCCC1=O` (stereo not given), the GI50 in the assay on LXFL 529, in the assay on DMS-273, in the assay on DLD-1, with KM-20L2, in the assay on XF498 and in the assay on M19-MEL was > 100 µM (inactive) in each case. For the same compound, the GI50 with HOP-18 and in the assay with DMS-114 was > 100 µM (inactive) in each case.

`CCn1c(=O)nc2n(-c3ccc(SC)cc3)c3ccccc3nc-2c1=O`: the GI50 was > 100 µM (inactive) with LXFL 529; 71.1 µM (inactive) with DMS-273; > 100 µM (inactive) in the assay on DLD-1; 40.5 µM (inactive) in the assay on KM-20L2; > 100 µM (inactive) in the assay with RXF 631; 30.7 µM (inactive) with M19-MEL. Moreover, the results for the GI50 in the assay on HOP-18 and in the assay on DMS-114 were > 100 µM (inactive) and 69.7 µM (inactive), respectively.

Take `C[N+](C)=c1[nH]c2ccccc2[nH]1`: the GI50 in the assay on LXFL 529, with DMS-273, in the assay on DLD-1, in the assay on KM-20L2, in the assay on M19-MEL and in the assay with HOP-18 was > 100 µM (inactive) each time. The GI50 in the assay with DMS-114 is > 100 µM (inactive).

For `COP12(OC)NC(=O)OC1(C(F)(F)F)c1ccccc1O2` (stereo not given), the GI50 in the assay on LXFL 529 is > 100 µM (inactive); with DMS-273, > 100 µM (inactive); in the assay with DLD-1 it was > 100 µM (inactive); in the assay on XF498, > 100 µM (inactive); in the assay on M19-MEL, > 100 µM (inactive); in the assay on HOP-18 it was 52.7 µM (inactive). The GI50 with DMS-114 was > 100 µM (inactive).

For `O=P1(c2ccccc2)CCCCC1`, the GI50 in the assay on LXFL 529 was > 100 µM (inactive); in the assay with DMS-273, > 100 µM (inactive); with DLD-1, > 100 µM (inactive); in the assay with KM-20L2, > 100 µM (inactive); with XF498, < 0.01 µM (active); in the assay on HOP-18, > 100 µM (inactive). Moreover, the GI50 with DMS-114 was > 100 µM (inactive).

Consider `CC(=O)OCC1OC(n2cccnc2=O)C(OC(C)=O)C1OC(C)=O` (stereo not given), for which the GI50 in the assay with LXFL 529, in the assay with DMS-273, in the assay on DLD-1, in the assay on KM-20L2, in the assay with RXF 631 and in the assay on XF498 was > 100 µM (inactive) in each case. Also, the GI50 in the assay with M19-MEL, with HOP-18 and in the assay with DMS-114 was > 100 µM (inactive) in each case.

Regarding `CC(=O)OC1(C)C(=O)OC1(C)C(C)=O` (stereo not given), the GI50 in the assay on LXFL 529, with DMS-273, in the assay on DLD-1, in the assay on KM-20L2, with RXF 631 and in the assay on M19-MEL was > 100 µM (inactive) throughout. The GI50 in the assay with HOP-18 and in the assay on DMS-114 was > 100 µM (inactive) throughout.

`Cc1cccc(O)c(=O)c1`: the GI50 with LXFL 529 is 29.9 µM (inactive); with DMS-273 it was 7.41 µM (inactive); in the assay with DLD-1 it was 24.1 µM (inactive); with KM-20L2 it was 22.8 µM (inactive); in the assay with M19-MEL, 43.5 µM (inactive); in the assay with HOP-18 it was > 100 µM (inactive). In the assay on DMS-114, the GI50 was 5.92 µM (inactive).

On to `C(=C1\CCC/C(=C/c2ccccc2)C1=NNc1ccccc1)/c1ccccc1`, for which the GI50 in the assay with LXFL 529, in the assay with DMS-273, in the assay with DLD-1, with KM-20L2, in the assay on RXF 631 and in the assay on M19-MEL was > 100 µM (inactive) throughout. Also, the GI50 in the assay on HOP-18 and in the assay with DMS-114 was > 100 µM (inactive) throughout.

For `CS(=O)(=O)NNS(=O)(=O)c1ccc(Br)cc1`, the GI50 with LXFL 529, in the assay with DMS-273, in the assay with DLD-1, in the assay on KM-20L2, in the assay on XF498 and with M19-MEL was > 100 µM (inactive) in each case. In addition, the GI50 in the assay with HOP-18 and in the assay on DMS-114 was > 100 µM (inactive) in each case.

Take `Cc1ccc2nc3c(Cl)cc(=O)cc-3sc2c1`: the GI50 is 18.7 µM (inactive) with LXFL 529; 19.7 µM (inactive) in the assay with DMS-273; > 10 µM (inactive) in the assay on DLD-1; > 10 µM (inactive) in the assay with KM-20L2; 30.8 µM (inactive) with RXF 631; 19.7 µM (inactive) in the assay on M19-MEL. In addition, the results for the GI50 with HOP-18 and with DMS-114 were 2.96 µM (inactive) and 20.4 µM (inactive), respectively.

In the case of `CCOC(=O)c1ccc(-n2c(SCC)nc3sc(C)c(C)c3c2=O)cc1`, the GI50 with DMS-273, in the assay with DLD-1, with KM-20L2, with XF498, in the assay with HOP-18 and in the assay on DMS-114 was > 100 µM (inactive) in each case.

`COc1ccc(-c2csc(=[N+]3CCCCC3)s2)cc1`: the GI50 in the assay on LXFL 529 is 3.07 µM (inactive); with DMS-273 it was 3.27 µM (inactive); in the assay with DLD-1 it was 4.79 µM (inactive); with KM-20L2, 2.66 µM (inactive); in the assay on XF498, 4.05 µM (inactive); in the assay on M19-MEL, 2.61 µM (inactive). The GI50 in the assay with HOP-18 is 5.15 µM (inactive).
